How the values were obtained:
Jily = test: MTS proliferation assay; format: cell-based; settings: 72 h
How it was run: (§1)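 Absorbance at 492 nm after a 3 h MTS incubation reports viable cell number. Before that, compounds at 10 μM, 3 μM, 1 μM and 0.3 μM final stay on the cells for 72 h at culture conditions.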

MRC5 = test: MTS proliferation assay; format: cell-based; settings: MRC5, 72 h
How it was run: as §1

Jurkat = test: MTS proliferation assay; format: cell-based, human; settings: 72 h
How it was run: as §1

HeLa = test: MTS proliferation assay; format: cell-based, human; settings: 72 h
How it was run: as §1

[1] = Hoechst 33342 nuclear staining; format: cell-based; settings: for Hoechst 33342 nuclear staining score, H460: H460 cells; for Hoechst 33342 nuclear staining score, HeLa: HeLa cells; for Hoechst 33342 nuclear staining score, Jily: Jily cells; for Hoechst 33342 nuclear staining score, Jurkat: Jurkat cells; for Hoechst 33342 nuclear staining score, MRC5: MRC5 cells;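 as to all read-outs here: apoptotic nuclei scored 0 none 1 weak under 50% of cells 2 strong over 50% of cells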
How it was run: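 After a further 30 min incubation, plates were inspected on a standard inverted fluorescence microscope. The fraction of apoptotic nuclei and other apoptosis-specific morphology were scored as 0 for no activity, 1 for weak activity in less than 50% of the cells, and 2 for strong activity in more than 50% of the cells.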

Row | Structure (SMILES) | IC50 (Jily) | Hoechst 33342 nuclear staining score, H460 ([1]; conc 0.1) | Hoechst 33342 nuclear staining score, H460 ([1]; conc 0.3) | Hoechst 33342 nuclear staining score, H460 ([1]; conc 1) | Hoechst 33342 nuclear staining score, H460 ([1]; conc 3) | Hoechst 33342 nuclear staining score, HeLa ([1]; conc 0.1) | Hoechst 33342 nuclear staining score, HeLa ([1]; conc 0.3) | Hoechst 33342 nuclear staining score, HeLa ([1]; conc 1) | Hoechst 33342 nuclear staining score, HeLa ([1]; conc 3) | Hoechst 33342 nuclear staining score, Jily ([1]; conc 0.1) | Hoechst 33342 nuclear staining score, Jily ([1]; conc 0.3) | Hoechst 33342 nuclear staining score, Jily ([1]; conc 1) | Hoechst 33342 nuclear staining score, Jily ([1]; conc 3) | Hoechst 33342 nuclear staining score, Jurkat ([1]; conc 0.1) | Hoechst 33342 nuclear staining score, Jurkat ([1]; conc 0.3) | Hoechst 33342 nuclear staining score, Jurkat ([1]; conc 1) | Hoechst 33342 nuclear staining score, Jurkat ([1]; conc 3) | Hoechst 33342 nuclear staining score, MRC5 ([1]; conc 0.1) | Hoechst 33342 nuclear staining score, MRC5 ([1]; conc 0.3) | Hoechst 33342 nuclear staining score, MRC5 ([1]; conc 1) | also measured
1 | COc1ccc(S(=O)(=O)n2cc(-c3cccnc3)cc2-c2cc(OC)c(OC)c(OC)c2)cc1 [Example 76, 1-p-Methoxyphenylsulfonyl-4-(3-pyridyl)-2-(3,4,5-trimethoxyphenyl)-pyrrole] | < 200 nM | 2 (strong activity comprising more than 50% of the cells) | 2 (strong activity comprising more than 50% of the cells) | 2 (strong activity comprising more than 50% of the cells) | 2 (strong activity comprising more than 50% of the cells) | 1 (weak activity comprising less than 50% of the cells) | 2 (strong activity comprising more than 50% of the cells) | 2 (strong activity comprising more than 50% of the cells) | 2 (strong activity comprising more than 50% of the cells) | 2 (strong activity comprising more than 50% of the cells) | 2 (strong activity comprising more than 50% of the cells) | 2 (strong activity comprising more than 50% of the cells) | 2 (strong activity comprising more than 50% of the cells) | 2 (strong activity comprising more than 50% of the cells) | 2 (strong activity comprising more than 50% of the cells) | 2 (strong activity comprising more than 50% of the cells) | 2 (strong activity comprising more than 50% of the cells) | 1 (weak activity comprising less than 50% of the cells) | 1 (weak activity comprising less than 50% of the cells) | 1 (weak activity comprising less than 50% of the cells) | IC50 (MRC5; Homo sapiens): < 200 nM; IC50 (Jurkat; Homo sapiens): < 200 nM; IC50 (HeLa; Homo sapiens): < 200 nM; Hoechst 33342 nuclear staining score, MRC5 ([1]; conc 3): 1 (weak activity comprising less than 50% of the cells); Hoechst 33342 nuclear staining score, PBLs ([1]; conc 0.1): 0; Hoechst 33342 nuclear staining score, PBLs ([1]; conc 0.3): 0; Hoechst 33342 nuclear staining score, PBLs ([1]; conc 1): 0; Hoechst 33342 nuclear staining score, PBLs ([1]; conc 3): 0
2 | COc1cc(-c2cc(-c3cccnc3)cn2S(=O)(=O)c2ccccc2)cc(OC)c1OC [Example 79] | > 1000 nM | 0 | 0 | 0 | 0 | 0 | 0 | 0 | 0 | 0 | 0 | 0 | 0 | 0 | 0 | 0 | 0 | 0 | 0 | 0 | IC50 (MRC5): > 1000 nM; IC50 (Jurkat): < 1000 nM; IC50 (HeLa): > 1000 nM; Hoechst 33342 nuclear staining score, MRC5 ([1]; conc 3): 0; Hoechst 33342 nuclear staining score, PBLs ([1]; conc 0.1): 0; Hoechst 33342 nuclear staining score, PBLs ([1]; conc 0.3): 0; Hoechst 33342 nuclear staining score, PBLs ([1]; conc 1): 0; Hoechst 33342 nuclear staining score, PBLs ([1]; conc 3): 0
3 | COc1cc(-c2cc(-c3cccnc3)cn2S(=O)(=O)c2ccc(F)cc2)cc(OC)c1OC [Example 80] | > 1000 nM | 0 | 0 | 0 | 0 | 0 | 0 | 0 | 0 | 0 | 0 | 0 | 2 (strong activity comprising more than 50% of the cells) | 0 | 0 | 0 | 2 (strong activity comprising more than 50% of the cells) | 0 | 0 | 0 | IC50 (MRC5): > 1000 nM; IC50 (Jurkat): > 1000 nM; IC50 (HeLa): > 1000 nM; Hoechst 33342 nuclear staining score, MRC5 ([1]; conc 3): 0; Hoechst 33342 nuclear staining score, PBLs ([1]; conc 0.1): 0; Hoechst 33342 nuclear staining score, PBLs ([1]; conc 0.3): 0; Hoechst 33342 nuclear staining score, PBLs ([1]; conc 1): 0; Hoechst 33342 nuclear staining score, PBLs ([1]; conc 3): 0
4 | COc1cc(-c2cc(-c3cccnc3)cn2S(=O)(=O)c2ccc(Cl)cc2)cc(OC)c1OC [Example 81] | > 1000 nM | 0 | 0 | 0 | 2 (strong activity comprising more than 50% of the cells) | 0 | 0 | 0 | 1 (weak activity comprising less than 50% of the cells) | 0 | 0 | 0 | 1 (weak activity comprising less than 50% of the cells) | 0 | 0 | 0 | 2 (strong activity comprising more than 50% of the cells) | 0 | 0 | 0 | IC50 (MRC5): > 1000 nM; IC50 (Jurkat): > 1000 nM; IC50 (HeLa): > 1000 nM; Hoechst 33342 nuclear staining score, MRC5 ([1]; conc 3): 0; Hoechst 33342 nuclear staining score, PBLs ([1]; conc 0.1): 0; Hoechst 33342 nuclear staining score, PBLs ([1]; conc 0.3): 0; Hoechst 33342 nuclear staining score, PBLs ([1]; conc 1): 0; Hoechst 33342 nuclear staining score, PBLs ([1]; conc 3): 0

— patent US7612064B2, “Sulfopyrroles” (Takeda Pharmaceutical Company Limited, priority 2003, dated 2009)
